Data on 45 molecules can be found in US20230002352A1, “SULFONAMIDE DERIVATIVES AS CTPS1 INHIBITORS” (Step Pharma S.A.S., priority 2019, published 2023).

This test deals with T1, human CTPS1 (Homo sapiens, UniProt P17812).
T1 construct: purchased Proteros biostructures GmbH
T1 sequence (P17812 1-591): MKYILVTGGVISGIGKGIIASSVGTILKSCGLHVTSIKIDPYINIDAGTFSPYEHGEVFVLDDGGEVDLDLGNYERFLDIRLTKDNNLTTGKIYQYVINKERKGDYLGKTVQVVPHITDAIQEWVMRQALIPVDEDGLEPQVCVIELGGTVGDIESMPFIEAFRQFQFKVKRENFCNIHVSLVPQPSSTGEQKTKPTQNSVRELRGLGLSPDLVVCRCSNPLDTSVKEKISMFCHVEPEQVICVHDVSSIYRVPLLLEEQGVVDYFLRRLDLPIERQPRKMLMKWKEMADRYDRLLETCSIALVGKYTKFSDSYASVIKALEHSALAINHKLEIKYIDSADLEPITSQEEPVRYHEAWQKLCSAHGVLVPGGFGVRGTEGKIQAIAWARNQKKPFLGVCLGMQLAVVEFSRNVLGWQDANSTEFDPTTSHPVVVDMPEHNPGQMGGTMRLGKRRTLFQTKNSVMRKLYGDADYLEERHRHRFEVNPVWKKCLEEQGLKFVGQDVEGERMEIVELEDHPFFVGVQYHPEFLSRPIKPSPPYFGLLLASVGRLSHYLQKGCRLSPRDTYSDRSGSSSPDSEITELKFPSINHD
Description: Human CTPS1 enzyme inhibition (ADP-Glo Max assay). In kind it is biochemical. The conditions noted are these: Table 23; ADP-Glo Max assay; read-out: CTPS1 (Human CTPS1 Enzyme Inhibition data grouped by potency range, IC50). As to the method: Biological Example 1—Human CTPS1 Enzyme Inhibition
The enzyme inhibitory activities of compounds invented against the target of interest were determined using the ADP-Glo™ Max assay (Promega, UK). Assays for human CTPS1 were performed in 1× assay buffer containing 50 mM Tris, 10 mM MgCl2, 0.01% Tween-20, pH to 8.0 accordingly. Finally, immediately before use, L-cysteine was added to the 1× assay buffer to a final concentration of 2 mM. All reagents are from Sigma-Aldrich unless specified otherwise. Human full length active C-terminal FLAG-Hiss-tag CTPS1 (UniProtKB-P17812, CTPS[1-591]-[…]) was obtained from Proteros biostructures GmbH.
3× human CTPS1 protein was prepared in 1× assay buffer to the final working protein concentration required for the reaction. A 2 uL volume per well of 3× human CTPS1 protein was mixed with 2 uL per well of 3× test compound (compound prepared in 1× assay buffer to an appropriate final 3× compound concentration respective to the concentration response curve designed for the compounds under test) for 10 minutes at 25° C. The enzymatic reaction was then initiated by addition of a 2 uL per well volume of a pre-mixed substrate mix (UltraPure ATP from ADP-Glo™ Max kit (0.31 mM), GTP (0.034 mM), UTP (0.48 mM) and L-glutamine (0.186 mM)) and the mixture was incubated for an appropriate amount of time within the determined linear phase of the reaction at 25° C. under sealed plate conditions with constant agitation at 500 revolutions per minute (rpm). ADP-Glo™ Max reagent was added for 60 minutes (6 μL per well) and subsequently ADP-Glo™ Max development reagent was added for 60 minutes (12 uL per well) prior to signal detection in a microplate reader (EnVision® Multilabel Reader, Perkin Elmer). Following each reagent addition over the course of the assay, assay plates were pulse centrifuged for 30 seconds at 500 rpm.
In all cases, the enzyme converts ATP to ADP and the ADP-Glo™ Max reagent subsequently depletes any remaining endogenous ATP in the reaction system. The ADP-Glo™ Max detection reagent converts the ADP that has been enzymatically produced back into ATP and using ATP as a substrate together with luciferin for the enzyme luciferase, light is generated which produces a detectable luminescence. […] The percentage inhibition produced by each concentration of compound was calculated using the equation shown below: […]
Percentage inhibition was then plotted against compound concentration, and the 50% inhibitory concentration (IC50) was determined from the resultant concentration-response curve.
As to `CCOc1cncc(-c2ccc(NC(=O)C(F)(CC)c3ccnc(NS(C)(=O)=O)n3)nc2)n1` (single isomer, unassigned) [Example P165], the IC50 (commonly the concentration needed to halve the response being measured) is no more than 100 nM.
Regarding `CCOc1cncc(-c2ccc(C(=O)NC(CC)c3cncc(NS(=O)(=O)C4CC4)n3)c(F)c2)n1` (single isomer, unassigned) [Example P225], the half-maximal inhibitory concentration (IC50) is no more than 100 nM.
Under `COc1cncc(-c2ccc(NC(=O)C(C)(C)c3ccnc(NS(=O)(=O)C4CC4)n3)cc2)n1` [Example P3, 2-(2-(cyclopropanesulfonamido)pyrimidin-4-yl)-N-(4-(6-methoxypyrazin-2-yl)phenyl)-2-methylpropanamide] stands no more than 100 nM; under `CC(C)(C(=O)Nc1ccc(-c2cncc(C(F)(F)F)c2)cc1)c1ccnc(NS(=O)(=O)C2CC2)n1` [Example P4, 2-(2-(Cyclopropanesulfonamido)pyrimidin-4-yl)-2-methyl-N-(4-(5-(trifluoromethyl)pyridin-3-yl)phenyl)propanamide], 100 to 1000 nM; under `Cc1cncc(-c2ccc(NC(=O)C(C)(C)c3ccnc(NS(C)(=O)=O)n3)c(C)c2)n1` [Example P5, 2-Methyl-N-(2-methyl-4-(6-methylpyrazin-2-yl)phenyl)-2-(2-(methylsulfonamido)pyrimidin-4-yl)propanamide], 1000 to 10000 nM.
Under `O=C(Cc1ccnc(NS(=O)(=O)C2CC2)n1)Nc1ccc(-c2cncc(C(F)(F)F)n2)cc1` [Example P8, 2-(2-(Cyclopropanesulfonamido)pyrimidin-4-yl)-N-(4-(6-(trifluoromethyl)pyrazin-2-yl)phenyl)acetamide] stands no more than 100 nM; under `CCOc1cncc(-c2ccc(NC(=O)C(CC)(CC)c3ccnc(NS(=O)(=O)C4CC4)n3)cc2)n1` [Example P10], no more than 100 nM; under `O=C(Cc1ccnc(NS(=O)(=O)C2CC2)n1)Nc1ccc(-c2cncc(C(F)(F)F)n2)cc1F` [Example P11], no more than 100 nM.
In the case of `O=C(Cc1ccnc(NS(=O)(=O)C2CC2)n1)Nc1ccc(-c2cncc(C(F)(F)F)c2)cc1` [Example P13], the IC50 was in the range of 100 to 1000 nM.
Under `O=C(Cc1ccnc(NS(=O)(=O)C2CC2)n1)Nc1ccc(-c2cncc(OCC(F)(F)F)c2)cc1` [Example P14] stands 100 to 1000 nM.
Turning to `O=C(Cc1nc(NS(=O)(=O)C2CC2)ncc1F)Nc1ccc(-c2cccnc2)cc1` [Example P15], the IC50 is 1000 to 10000 nM.
Regarding `O=C(Cc1ccnc(NS(=O)(=O)C2CC2)n1)Nc1ccc(-c2ccccc2)cc1` [Example P17], the IC50 lay in the range of 1000 to 10000 nM.
To `COc1cncc(-c2ccc(NC(=O)Cc3ccnc(NS(=O)(=O)C4CC4)n3)cc2)n1` [Example P19] belongs no more than 100 nM.
Under `O=C(Cc1ccnc(NS(=O)(=O)C2CC2)n1)Nc1ccc(-c2cncc(OCC(F)(F)F)n2)cc1` [Example P20] stands no more than 100 nM; under `CCOc1cncc(-c2ccc(NC(=O)C(C)(C)c3ccnc(NS(=O)(=O)C4CCC4)n3)nc2)n1` [Example P22], 100 to 1000 nM; under `CC(C)Oc1cncc(-c2ccc(NC(=O)C(C)(C)c3ccnc(NS(=O)(=O)C4CCC4)n3)c(F)c2)n1` [Example P23], 100 to 1000 nM.
To `CCOc1cncc(-c2ccc(NC(=O)C(C)(C)c3ccnc(NS(=O)(=O)C4CCC4)n3)c(C)c2)n1` [Example P24] belongs 100 to 1000 nM.
Turning to `COc1cncc(-c2ccc(NC(=O)C(C)(C)c3ccnc(NS(=O)(=O)C4CCC4)n3)cc2)n1` [Example P25], the IC50 is 100 to 1000 nM.
To `CCOc1cncc(-c2ccc(NC(=O)C(C)(C)c3ccnc(NS(=O)(=O)C4CCC4)n3)cc2)n1` [Example P26] belongs 100 to 1000 nM; to `CCOc1cncc(-c2cnc(NC(=O)C(C)(C)c3ccnc(NS(=O)(=O)C4CC4)n3)c(F)c2)n1` [Example P27], no more than 100 nM.
To `CCOc1cncc(-c2ccc(NC(=O)C(C)(C)c3ccnc(NS(=O)(=O)C4CC4)n3)nc2)c1` [Example P28] belongs 100 to 1000 nM; to `CC(C)(C(=O)Nc1ccc(-c2cccnc2)cn1)c1ccnc(NS(=O)(=O)C2CC2)n1` [Example P29], 1000 to 10000 nM; to `CC(C)(C(=O)Nc1ccc(-c2cncc(C(F)(F)F)n2)cn1)c1ccnc(NS(=O)(=O)C2CC2)n1` [Example P30], no more than 100 nM.
Under `CC(C)(C(=O)Nc1ccc(-c2cncc(OC3CC3)n2)cn1)c1ccnc(NS(=O)(=O)C2CC2)n1` [Example P32] stands no more than 100 nM; under `CCOc1cncc(-c2ccc(NC(=O)C(C)(C)c3ccnc(NS(=O)(=O)C4CC4)n3)c(Cl)c2)n1` [Example P33], no more than 100 nM; under `CC(C)Oc1cncc(-c2ccc(NC(=O)C(C)(C)c3ccnc(NS(=O)(=O)C4CC4)n3)c(F)c2)c1` [Example P35], 100 to 1000 nM.
Regarding `CC(C)(C(=O)Nc1ccc(-c2cccnc2)cc1F)c1ccnc(NS(=O)(=O)C2CC2)n1` [Example P36], the IC50 lay within 1000 to 10000 nM.
On to `CC(C)(C(=O)Nc1ccc(-c2cncc(C(F)(F)F)n2)cc1F)c1ccnc(NS(=O)(=O)C2CC2)n1` [Example P37], for which the 50% inhibitory concentration (IC50) was no more than 100 nM.
In the case of `CCOc1cncc(-c2cc(F)c(NC(=O)C(C)(C)c3ccnc(NS(=O)(=O)C4CC4)n3)cc2C)n1` [Example P40], the IC50 is 100 to 1000 nM.
Regarding `CCOc1cncc(-c2cc(F)c(NC(=O)C(C)(C)c3ccnc(NS(=O)(=O)C4CC4)n3)c(F)c2)n1` [Example P41], the IC50 was no more than 100 nM.
To `CC(C)(C(=O)Nc1ccc(-c2cnccn2)cc1F)c1ccnc(NS(=O)(=O)C2CC2)n1` [Example P42] belongs 1000 to 10000 nM.
Under `Cc1cc(-c2cncc(C(F)(F)F)n2)ccc1NC(=O)C(C)(C)c1ccnc(NS(=O)(=O)C2CC2)n1` [Example P43] stands 100 to 1000 nM; under `CCOc1cncc(-c2ccc(NC(=O)C(C)(C)c3ccnc(NS(=O)(=O)C4CC4)n3)c(C)c2C)n1` [Example P44], 100 to 1000 nM.
On to `CCOc1cncc(-c2cc(C)c(NC(=O)C(C)(C)c3ccnc(NS(=O)(=O)C4CC4)n3)cc2F)n1` [Example P45], for which the IC50 lay in the range of 100 to 1000 nM.
As to `CCOc1cncc(-c2cc(C)c(NC(=O)C(C)(C)c3ccnc(NS(=O)(=O)C4CC4)n3)cc2C)n1` [Example P46], the IC50 fell in the range of 100 to 1000 nM.
Regarding `CCOc1cncc(-c2ccc(NC(=O)C(C)(C)c3ccnc(NS(=O)(=O)C4CC4)n3)c(OC(F)(F)F)c2)n1` [Example P47], the concentration for half-maximal inhibition (IC50) is no more than 100 nM.
To `CCOc1cncc(-c2cc(OC)c(NC(=O)C(C)(C)c3ccnc(NS(=O)(=O)C4CC4)n3)cc2F)n1` [Example P48] belongs 100 to 1000 nM; to `CCOc1cncc(-c2ccc(NC(=O)C(C)(C)c3ccnc(NS(=O)(=O)C4CC4)n3)c(OC)c2)n1` [Example P49], no more than 100 nM; to `CC(C)(C(=O)Nc1ccc(-c2cncnc2)cc1)c1ccnc(NS(=O)(=O)C2CC2)n1` [Example P50], 1000 to 10000 nM.
`CC(C)(C(=O)Nc1ccc(-c2cncc(Cl)c2)cc1)c1ccnc(NS(=O)(=O)C2CC2)n1` [Example P51]: the concentration for half-maximal inhibition (IC50) lay in the range of 100 to 1000 nM.
For the molecule `CC(C)(C(=O)Nc1ccc(-c2cncc(C#N)c2)cc1)c1ccnc(NS(=O)(=O)C2CC2)n1` [Example P52], the IC50 was 100 to 1000 nM.
As to `CC(C)(C(=O)Nc1ccc(-c2cncc(F)c2)cc1)c1ccnc(NS(=O)(=O)C2CC2)n1` [Example P53], the IC50 lay within 100 to 1000 nM.
Under `Cc1cncc(-c2ccc(NC(=O)C(C)(C)c3ccnc(NS(=O)(=O)C4CC4)n3)cc2)c1` [Example P54] stands 100 to 1000 nM; under `CC(C)(C(=O)Nc1ccc(-c2cncc(OC(F)F)c2)cc1)c1ccnc(NS(=O)(=O)C2CC2)n1` [Example P55], no more than 100 nM.
To `COc1cncc(-c2ccc(NC(=O)C(C)(C)c3ccnc(NS(=O)(=O)C4CC4)n3)cc2)c1` [Example P56] belongs 100 to 1000 nM.
